We go through one sequence from patent US20170131285A1, “METHODS AND COMPOSITIONS FOR DIAGNOSING, MONITORING AND TREATING CANCER” (INSERM (Institut National de la Sante et de la Recherche …, priority 2014, published 2017).

Where no end group is shown, it is not given here.

In one experiment the test system is primary MDSC. Nature of the experiment: Primary MDSC proliferation (Cellometer-mini). It counts as cell-based, mouse. The note with it: exosomes from B16F10, A8 16 μM, 24 hours. As to the method: (§1) FIG. 9: TDE and A8 effects on MSC2 and MDSC proliferation. A) Dynamic monitoring of in vitro MSC2 cell proliferation using the RTCA-DP system (Real-Time Cell Analyzer). MSC2 were incubated or not for 11 h with exosomes (from B16F10) in the absence or presence of A8 (16 μM and 32 μM). Cell index values were measured every 30 seconds (n=3). B) MSC2 were incubated or not for 24 h with exosomes (from B16F10) in the absence or presence of A8 (16 μM). Then, cells were labelled with BrdU and incorporation was determined by flow cytometry (n=3). C) MDSC were treated with exosomes (from B16F10) in the absence or presence of A8 ([…]) for 24 hours and then analyzed for proliferation by Cellometer-mini. *p<0.05.
(§2) MSC2 cells proliferation were analyzed by to different techniques. First, MSC2 (1·10^4) were seeded onto 16-well plates with medium containing 10% FBS and incubated for 34 hours. […] Into each well of the micro-electronic sensor transendothelial electric resistance (TER) was measured by xCELLigence real time cell analyzer DP system (Roche). TER was measured every 30 s and then normalized to the initial value. […] MDSC proliferation was analyzed by cell counting. MDSC cells (1·10^6) from spleen of naive mice (see MDSC isolation section) were treated or not with exosomes (from B16F10) in the absence or presence of A8 (16 μM) for 24 hours and then analyzed for viability by Cellometer-mini (Ozyme).

A further experiment relates to MSC2 cells. Nature of the experiment: MSC2 proliferation (RTCA-DP, BrdU). Format: cell-based. The note with it: exosomes from B16F10, A8 16 μM and 32 μM. How it is done: as §1, §2
The subject of another experiment is B16F10 tumors. Nature of the experiment: B16F10 melanoma tumor model in C57/BL6 mice. It counts as in vivo, mouse. How it is done: FIG. 5: A8 anti-tumor effect in mice is associated to MDSC and an immune anti-tumor response. (A) Mice were sc injected with B16F10 cells (5×10^4). On day 4, when tumor size was about 0.9 mm^3, animals were treated every two days until the end of the experiment with A0 or A8 (3 mg/kg dissolved in PBS, i.p injection). On day 5, half the animals were treated with cisplatin as a single dose (CDDP, i.p injection, 5 mg/kg). At day 18, the percentage of Gr1^+ CD11b^+ cells in the spleen collected from the different groups of mice was analyzed by flow cytometry (6 animals per group). As a MDCS negative control (Ctl) we used animals with no tumor cells injected. Right panels, a representative immunoblot of pSTAT3 in the MDSC (Gr1^+ CD11b^+ cells) isolated from the spleen of control animals (A0/PBS) or A8 and CDDP-treated animals (A8/CDDP). 14-3-3 is used as a loading control. (B) Analysis of tumor growth in the animals described above. Tumor size was measured every two days (6 animals per group). The white symbols represent the tumors from animals treated with cisplatin. (C) HSP70-exosomes isolated from B16F10 cells treated or not with cisplatin (CDDP, 25 μM) were determined by flow cytometry. Data represent the percentage of MFI+/−SD (n=3); *, p<0.05. (D) Association curves of HSP70-exosomes present in tumor-bearing mice sera treated or not with cisplatin (5 mg/kg). For the biolayer interferometry, biotinylated A8 was immobilized on streptavidin sensor tips. Curves represent mean values of triplicate measurements for each concentration (for each curve, the blood of 5 mice per group was pooled).
Exponentially growing B16F10 were harvested and resuspended in an RPMI medium without FBS. In vivo studies were performed in wild-type C57/BL6 mice (Charles River). B16F10 cells (5·10^4) were injected s.c. into the right flank Tumor volumes were evaluated every 2 days. Mice were treated with a control peptide aptamer A0 (3 mg/kg) or the HSP70 aptamer A8 (3 mg/kg) and half mice were treated with cisplatin (CDDP, […]). The animals were treated according to the guidelines of the Ministère de la Recherche et de la Technologie, France. All experiments were approved by the Comité d'Ethique de l'Université de Bourgogne.
MDSC cell isolation and analysis: Single-cell suspensions were prepared from spleens, and red cells were removed using ammonium chloride lysis buffer. Gr-1+ cells were isolated from spleens of different group of tumor-bearing mice or naive mice by labeling the cells with PE Cy7 Ab to Gr-1, then using magnetic PE Cy7 beads and LS MACS columns (Miltenyi Biotec). For extracellular staining of immune markers, single-cell suspensions were prepared. We incubated 1·10^6 freshly prepared cells with fluorochrome-coupled CD11b antibody (eBioscience). All events were acquired by a BD Bioscience LSR-II device and analyzed with FlowJo (Tree Star).
Animals were killed 18 days after cell injection. The site of tumor cell injection was resected and snap-frozen in liquid nitrogen. An immunohistochemical study of tumor-infiltrating inflammatory cells was performed on acetone-fixed 5 μm cryostat sections.
Next, we tested whether A8 was also able to block the immunosuppressive effect of MDSC in an in vivo cancer model. We performed subcutaneous injection at day 0 of B16F10 cells or media as a control in C57/BL6 mice. When tumor size reached about 0.9 mm^3 ([…]), mice were treated i.p. with a control peptide aptamer (A0) or A8 every two days until the end of the experiment. When indicated, half of the animals received cisplatin (CDDP, […], i.p.) as a single dose. Tumor growth was measured every two days. After 18 days, we analyzed the percentage of MDSC present in mice spleen (6 animals per group) by FACS using the specific markers Gr1^+ and CD11b^+ (FIG. 5A). […]

For SPWPRPTY [Aptamer A8, SPWPRPTY], the “TDE-induced proliferation of primary MDSC” value in the experiment with primary MDSC is “blocked”. Further, in the experiment with MSC2 cells, the “TDE-induced proliferation of MSC2” value is recorded as “blocked”. The “intra-tumor infiltration of immune cells (CD3+, CD11c+, CD11b+, F4/80+)” value with B16F10 tumors (B16F10 model) is “intra-tumor infiltration of immune cells”. Besides, the “anti-cancer properties of cisplatin” value in the experiment on B16F10 tumors (B16F10 model, A8 added to cisplatin) is “strong increase”. Further, the “percentage of MDSC (Gr1+ CD11b+) in spleen” value in the experiment with B16F10 tumors (B16F10 tumor-bearing C57/BL6 mice, day 18, A0 or A8 3 mg/kg i.p. every two days, cisplatin single i.p. dose, 6 animals per group) was 6+/−0.7%. Further, the “activity of spleen MDSC measured by phosphorylated STAT3” value in the experiment with B16F10 tumors (after cisplatin treatment, immunoblot of Gr1+ CD11b+ cells) is listed as “affected their activity”. In addition, in the experiment on B16F10 tumors (tumor-bearing mice), the “tumor growth / tumor progression” value is “inhibits tumor progression”.
